Here are results for two molecules from patent US9688670B2, “Benzimidazole compounds and medical uses thereof” (Sumitomo Dainippon Pharma Co., Ltd., priority 2015, dated 2017).

The target in the assay is human SCN9A (Nav 1.7) (Homo sapiens, UniProt Q15858). Description: Measurement of Na ion current (Nav 1.7 current) by automated patch clamp assay using cells stably-expressing human SCN9A. The assay is classed as cell-based. To be noted: concentration of each compound 10 μmol/L, holding potential inactivating 50% Nav 1.7 channel (around −60 mV), room temperature. As to the method:
Measurement of Na Ion Current in Voltage-Dependent Na Channel Gene Expressed Cell Nav 1.7 current was measured by automated patch clamp assay using cells stably-expressing human SCN9A. Cells Stably-Expressing Human SCN9A Tetracycline-induced cells stably-expressing SCN9A were obtained from ChanTest Corporation. […] Next day, the Na ion current was measured by automated patch clamp assay. Electrophysiologic Measurement of Na Ion Current The Na ion current was measured by automated patch clamp assay using the following extracellular solution and intracellular solution. […] The control of the stimulating pulse and the data acquisition were carried out using EPC10 amplifier and Patch Master Software (HEKA). Data were sampled at 10 kHz, and low-pass filtered at 3 kHz. All the measurements were carried out at room temperature. […] The inhibitory rate of the Na ion current by the test compounds was calculated according to the following calculating formula with the peak current value generated by the depolarizing pulse. […] The inhibitory rate of Na ion current by each Example Compound was evaluated.
In general terms: The patch-clamp technique gives a direct electrical read-out from membranes.

Molecules are shown by their SMILES.

Sequence of human SCN9A (Nav 1.7) (Q15858 whole entry): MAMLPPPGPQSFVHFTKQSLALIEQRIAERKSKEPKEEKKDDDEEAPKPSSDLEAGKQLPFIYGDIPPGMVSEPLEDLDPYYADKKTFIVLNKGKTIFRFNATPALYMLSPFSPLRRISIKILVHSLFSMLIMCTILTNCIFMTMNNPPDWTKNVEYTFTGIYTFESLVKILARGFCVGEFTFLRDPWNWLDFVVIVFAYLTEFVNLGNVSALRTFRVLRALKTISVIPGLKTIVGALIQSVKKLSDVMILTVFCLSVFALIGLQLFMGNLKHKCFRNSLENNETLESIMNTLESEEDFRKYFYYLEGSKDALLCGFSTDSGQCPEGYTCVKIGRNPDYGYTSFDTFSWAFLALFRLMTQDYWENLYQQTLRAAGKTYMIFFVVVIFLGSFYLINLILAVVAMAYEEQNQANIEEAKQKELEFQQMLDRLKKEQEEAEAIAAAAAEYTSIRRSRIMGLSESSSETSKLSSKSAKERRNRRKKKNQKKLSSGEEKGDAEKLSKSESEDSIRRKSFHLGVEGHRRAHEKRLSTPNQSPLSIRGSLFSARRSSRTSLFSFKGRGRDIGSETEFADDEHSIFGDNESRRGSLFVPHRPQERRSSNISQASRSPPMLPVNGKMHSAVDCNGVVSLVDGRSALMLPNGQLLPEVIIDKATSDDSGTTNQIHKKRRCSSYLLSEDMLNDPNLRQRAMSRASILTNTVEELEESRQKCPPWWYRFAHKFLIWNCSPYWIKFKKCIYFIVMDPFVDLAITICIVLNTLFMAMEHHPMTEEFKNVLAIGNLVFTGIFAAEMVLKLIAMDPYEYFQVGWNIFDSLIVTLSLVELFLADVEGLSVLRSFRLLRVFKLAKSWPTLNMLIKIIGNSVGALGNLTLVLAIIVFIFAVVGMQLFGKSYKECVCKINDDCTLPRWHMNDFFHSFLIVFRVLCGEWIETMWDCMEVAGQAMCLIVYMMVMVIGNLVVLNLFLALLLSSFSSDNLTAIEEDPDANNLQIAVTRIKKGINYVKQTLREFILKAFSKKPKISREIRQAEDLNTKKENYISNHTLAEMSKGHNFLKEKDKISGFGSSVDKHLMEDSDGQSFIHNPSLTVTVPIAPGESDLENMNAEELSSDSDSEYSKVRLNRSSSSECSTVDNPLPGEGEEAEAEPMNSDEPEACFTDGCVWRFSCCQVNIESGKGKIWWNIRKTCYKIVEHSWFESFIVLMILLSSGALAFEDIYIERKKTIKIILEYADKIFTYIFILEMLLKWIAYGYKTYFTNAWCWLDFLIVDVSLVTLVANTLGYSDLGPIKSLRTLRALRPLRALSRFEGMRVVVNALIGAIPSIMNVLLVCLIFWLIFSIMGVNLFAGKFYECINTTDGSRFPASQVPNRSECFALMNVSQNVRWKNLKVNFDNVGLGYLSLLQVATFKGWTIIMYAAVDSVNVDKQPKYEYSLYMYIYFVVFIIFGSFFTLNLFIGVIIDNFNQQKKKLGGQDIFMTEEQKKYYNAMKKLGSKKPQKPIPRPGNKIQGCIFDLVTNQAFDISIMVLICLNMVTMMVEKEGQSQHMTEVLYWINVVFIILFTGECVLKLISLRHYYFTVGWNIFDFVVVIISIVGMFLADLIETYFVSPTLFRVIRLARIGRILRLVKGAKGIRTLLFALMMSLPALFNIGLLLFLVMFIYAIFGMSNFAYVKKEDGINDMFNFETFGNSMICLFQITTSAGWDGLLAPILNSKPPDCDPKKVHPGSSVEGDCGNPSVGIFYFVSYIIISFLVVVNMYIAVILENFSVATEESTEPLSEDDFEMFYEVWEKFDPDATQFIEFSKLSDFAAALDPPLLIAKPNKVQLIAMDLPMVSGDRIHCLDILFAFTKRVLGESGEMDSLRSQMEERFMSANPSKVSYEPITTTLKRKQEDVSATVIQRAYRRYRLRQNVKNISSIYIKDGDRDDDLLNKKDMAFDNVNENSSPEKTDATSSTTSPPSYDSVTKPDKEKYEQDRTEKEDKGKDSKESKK

With `C[C@]1(O)C[C@@H](n2cnc3ccc(Oc4ccc(C(F)(F)F)cn4)cc32)C1` [Example 121], the inhibition at 10 µM (read-out: Inhibitory rate (%) of Na ion current) is 21%. With `OC1(Cn2cnc3ccc(Oc4ccc(C(F)(F)F)cc4)cc32)COC1` [Example 90], the “Inhibitory rate (%) of Na ion current” value was found to be 15%.
